Assay results as given in patent US20250289787A1, “HERBICIDAL 2-OXO-NICOTINIC ACID DERIVATIVES” (SYNGENTA CROP PROTECTION AG, priority 2022, published 2025).

Experiments:
Assay type in all cases: in vivo
[1] = tested on: Echinochloa crus-galli (ECHCG); test: Pre-emergence test, herbicidal damage; set-up: key: 5=81-100%; 4=61-80%; 3=41-60%; 2=21-40%; 1=1-20%; 0=no damage to the plant; -=not tested; conditions: 1000 g/ha unless otherwise stated, evaluated after 13 days, five-point scale
[2] = tested on: Amaranthus palmeri (AMAPA); test: Post-emergence test, herbicidal damage; set-up: key: 5=81-100%; 4=61-80%; 3=41-60%; 2=21-40%; 1=1-20%; 0=no damage to the plant; -=not tested; conditions: sprayed after 8 days cultivation, 1000 g/ha unless otherwise stated, evaluated after 13 days, five-point scale
Outline: (§1)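 Spray at 1000 g/ha unless otherwise stated; vehicle acetone/water (50:50) with 0.5% Tween 20; applied to pots in a 24/16 °C glasshouse. Injury was assessed 13 days after application and banded into a five-point score, 5 denoting 81–100% damage.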

[3] = tested on: Ipomoea hederacea (IPOHE); test: Post-emergence test, herbicidal damage; set-up: key: 5=81-100%; 4=61-80%; 3=41-60%; 2=21-40%; 1=1-20%; 0=no damage to the plant; -=not tested; conditions: sprayed after 8 days cultivation, 1000 g/ha unless otherwise stated, evaluated after 13 days, five-point scale
Outline: as §1

Zea mays (ZEAMX) [4] = test: Post-emergence test, herbicidal damage; set-up: key: 5=81-100%; 4=61-80%; 3=41-60%; 2=21-40%; 1=1-20%; 0=no damage to the plant; -=not tested; conditions: sprayed after 8 days cultivation, 1000 g/ha unless otherwise stated, evaluated after 13 days, five-point scale
Outline: as §1

[5] = tested on: Echinochloa crus-galli (ECHCG); test: Post-emergence test, herbicidal damage; set-up: key: 5=81-100%; 4=61-80%; 3=41-60%; 2=21-40%; 1=1-20%; 0=no damage to the plant; -=not tested; conditions: sprayed after 8 days cultivation, 1000 g/ha unless otherwise stated, evaluated after 13 days, five-point scale
Outline: as §1

Setaria faberi (SETFA) [6] = test: Post-emergence test, herbicidal damage; set-up: key: 5=81-100%; 4=61-80%; 3=41-60%; 2=21-40%; 1=1-20%; 0=no damage to the plant; -=not tested; conditions: sprayed after 8 days cultivation, 1000 g/ha unless otherwise stated, evaluated after 13 days, five-point scale
Outline: as §1

[7] = tested on: Amaranthus retoflexus (AMARE); test: Post-emergence test, herbicidal damage; set-up: key: 5=81-100%; 4=61-80%; 3=41-60%; 2=21-40%; 1=1-20%; 0=no damage to the plant; -=not tested; conditions: sprayed after 8 days cultivation, 1000 g/ha unless otherwise stated, evaluated after 13 days, five-point scale
Outline: as §1

[8] = tested on: Amaranthus palmeri (AMAPA); test: Pre-emergence test, herbicidal damage; conditions: 1000 g/ha unless otherwise stated, evaluated after 13 days, five-point scale
[9] = tested on: Ipomoea hederacea (IPOHE); test: Pre-emergence test, herbicidal damage; set-up: key: 5=81-100%; 4=61-80%; 3=41-60%; 2=21-40%; 1=1-20%; 0=no damage to the plant; -=not tested; conditions: 1000 g/ha unless otherwise stated, evaluated after 13 days, five-point scale
Setaria faberi (SETFA) [10] = test: Pre-emergence test, herbicidal damage; set-up: key: 5=81-100%; 4=61-80%; 3=41-60%; 2=21-40%; 1=1-20%; 0=no damage to the plant; -=not tested; conditions: 1000 g/ha unless otherwise stated, evaluated after 13 days, five-point scale
[11] = tested on: Amaranthus retoflexus (AMARE); test: Pre-emergence test, herbicidal damage; conditions: 1000 g/ha unless otherwise stated, evaluated after 13 days, five-point scale
Zea mays (ZEAMX) [12] = test: Pre-emergence test, herbicidal damage; set-up: key: 5=81-100%; 4=61-80%; 3=41-60%; 2=21-40%; 1=1-20%; 0=no damage to the plant; -=not tested; conditions: 1000 g/ha unless otherwise stated, evaluated after 13 days, five-point scale

Row | SMILES | percentage damage caused to the plant, ECHCG [1] | percentage damage caused to the plant, AMAPA [2] | percentage damage caused to the plant, IPOHE [3] | percentage damage caused to the plant, ZEAMX (Zea mays (ZEAMX) [4]) | percentage damage caused to the plant, ECHCG [5] | percentage damage caused to the plant, SEFTA (Setaria faberi (SETFA) [6]) | percentage damage caused to the plant, AMARE [7] | percentage damage caused to the plant, AMAPA [8] | percentage damage caused to the plant, IPOHE [9] | percentage damage caused to the plant, SEFTA (Setaria faberi (SETFA) [10]) | percentage damage caused to the plant, AMARE [11] | percentage damage caused to the plant, ZEAMX (Zea mays (ZEAMX) [12])
1 | Cc1c(Cl)c(-c2ccc(Cl)c(Cl)c2)c(C(=O)O)c(=O)n1-c1cccc(C(F)(F)F)c1F [Compound 23, 5-chloro-4-(3,4-dichlorophenyl)-1-[2-fluoro-3-(trifluoromethyl)phenyl]-6-methyl-2-oxo-pyridine-3-carboxylic acid] | 1 (1=1-20%) | 4 (4=61-80%) | 1 (1=1-20%) | 1 (1=1-20%) | 1 (1=1-20%) | 1 (1=1-20%) | 4 (4=61-80%) | 4 (4=61-80%) | 0 | 1 (1=1-20%) | 4 (4=61-80%) | 0
2 | Cc1c(Cl)c(-c2ccc(Cl)c(Cl)c2)c(C(=O)O)c(=O)n1-c1ccc(Cl)cc1F [Compound 25, 5-chloro-1-(4-chloro-2-fluoro-phenyl)-4-(3,4-dichlorophenyl)-6-methyl-2-oxo-pyridine-3-carboxylic acid] | 2 (2=21-40%) | 3 (3=41-60%) | 1 (1=1-20%) | 1 (1=1-20%) | 1 (1=1-20%) | 1 (1=1-20%) | 3 (3=41-60%) | 4 (4=61-80%) | 1 (1=1-20%) | 2 (2=21-40%) | 4 (4=61-80%) | 1 (1=1-20%)
3 | Cc1c(-c2ccc(Cl)c(Cl)c2)c(C(=O)O)c(=O)n(-c2ccc(Cl)cc2F)c1C [Compound 26, 1-(4-chloro-2-fluoro-phenyl)-4-(3,4-dichlorophenyl)-5,6-dimethyl-2-oxo-pyridine-3-carboxylic acid] | 0 | 3 (3=41-60%) | 0 | 1 (1=1-20%) | 1 (1=1-20%) | 1 (1=1-20%) | 3 (3=41-60%) | 3 (3=41-60%) | 1 (1=1-20%) | 1 (1=1-20%) | 3 (3=41-60%) | 1 (1=1-20%)
4 | Cc1c(Cl)c(-c2ccc(Cl)c(Cl)c2)c(C(=O)O)c(=O)n1Cc1ccc(C(F)(F)F)cc1F [Compound 28, 5-chloro-4-(3,4-dichlorophenyl)-1-[[2-fluoro-4-(trifluoromethyl)phenyl]methyl]-6-methyl-2-oxo-pyridine-3-carboxylic acid] | 1 (1=1-20%) | 4 (4=61-80%) | 1 (1=1-20%) | 1 (1=1-20%) | 0 | 1 (1=1-20%) | 3 (3=41-60%) | 4 (4=61-80%) | 1 (1=1-20%) | 0 | 3 (3=41-60%) | 1 (1=1-20%)
5 | Cc1cc(-c2ccc(Cl)c(Cl)c2)c(C(=O)O)c(=O)n1Cc1ccc(F)cc1F [Compound 31, 4-(3,4-dichlorophenyl)-1-[(2,4-difluorophenyl)methyl]-6-methyl-2-oxo-pyridine-3-carboxylic acid] | 0 | 1 (1=1-20%) | 0 | 0 | 1 (1=1-20%) | 0 | 1 (1=1-20%) | 1 (1=1-20%) | 0 | 1 (1=1-20%) | 1 (1=1-20%) | 0
6 | C=Cc1c(-c2ccc(Cl)c(Cl)c2)c(C(=O)O)c(=O)n(-c2ccc(Cl)cc2F)c1C [Compound 32, 1-(4-chloro-2-fluoro-phenyl)-4-(3,4-dichlorophenyl)-6-methyl-2-oxo-5-vinyl-pyridine-3-carboxylic acid] | 2 (2=21-40%) | 4 (4=61-80%) | 2 (2=21-40%) | 1 (1=1-20%) | 1 (1=1-20%) | 1 (1=1-20%) | 3 (3=41-60%) | 4 (4=61-80%) | 1 (1=1-20%) | 1 (1=1-20%) | 3 (3=41-60%) | 1 (1=1-20%)
7 | Cc1c(Br)c(-c2ccc(Cl)c(Cl)c2)c(C(=O)O)c(=O)n1Cc1ccc(C#N)cc1F [Compound 33, 5-bromo-1-[(4-cyano-2-fluoro-phenyl)methyl]-4-(3,4-dichlorophenyl)-6-methyl-2-oxo-pyridine-3-carboxylic acid] | 1 (1=1-20%) | 3 (3=41-60%) | 1 (1=1-20%) | 1 (1=1-20%) | 1 (1=1-20%) | 1 (1=1-20%) | 3 (3=41-60%) | 3 (3=41-60%) | 1 (1=1-20%) | 1 (1=1-20%) | 3 (3=41-60%) | 1 (1=1-20%)
8 | Cc1c(Cl)c(-c2ccc(Cl)c(Cl)c2)c(C(=O)O)c(=O)n1Cc1ccc(F)cc1F [Compound 34, 5-chloro-4-(3,4-dichlorophenyl)-1-[(2,4-difluorophenyl)methyl]-6-methyl-2-oxo-pyridine-3-carboxylic acid] | 1 (1=1-20%) | 4 (4=61-80%) | 1 (1=1-20%) | 0 | 1 (1=1-20%) | 0 | 3 (3=41-60%) | 4 (4=61-80%) | 0 | 1 (1=1-20%) | 3 (3=41-60%) | 0
9 | CCc1c(-c2ccc(Cl)c(Cl)c2)c(C(=O)O)c(=O)n(-c2ccc(Cl)cc2F)c1C [Compound 35, 1-(4-chloro-2-fluoro-phenyl)-4-(3,4-dichlorophenyl)-5-ethyl-6-methyl-2-oxo-pyridine-3-carboxylic acid] | 1 (1=1-20%) | 4 (4=61-80%) | 1 (1=1-20%) | 0 | 0 | 0 | 4 (4=61-80%) | 4 (4=61-80%) | 0 | 0 | 4 (4=61-80%) | 0
